Measured values taken from US20210332024A1, “MODULATORS OF PIN1 ACTIVITY AND USES THEREOF” (Yeda Research and Development Co. Ltd., priority 2019, published 2021).

Legend:
GST-Pin1 = GST-Pin1 (Homo sapiens, UniProt Q13526); assay: Fluorescence polarization (FP) competition assay; assay type: binding; conditions: FP assay, competition with fluorescein-labeled peptide, 250 nM GST-Pin1; read-out: Ki (apparent)
Method: Binding affinity to Pin1 was determined using a fluorescence polarization assay to assess competition with an N-terminal fluorescein-labeled peptide (Bth-D-phosThr-Pip-Nal), which was obtained from JPT Peptide Technologies and Proteintech Group. The indicated concentrations of candidate compound were pre-incubated for 12 hours at 4° C. with a solution containing 250 nM glutathione S-transferase (GST)-Pin1, 5 nM of fluorescein-labeled peptide probe, 10 μg/ml bovine serum albumin, 0.01% Tween-20 and 1 mM DTT (dithiothreitol) in a buffer of 10 mM HEPES, 10 mM NaCl and 1% glycerol (pH 7.4). Measurements of FP were performed in black 384-well plates (Corning) using an EnVision™ reader. Apparent Ki values (under the tested conditions) obtained from the FP assay results were derived from the Kenakin Ki equation:
Kenakin Ki=(Lb)(EC50)(Kd)/(Lo)(Ro)+Lb(Ro−Lo+Lb−Kd)
Sittampalam G. S. et al., Eli Lilly & Company and the National Center for Advancing Translational Sciences, 2004].
Covalent labeling of Pin1 was confirmed to translate into enzyme inhibition via a fluorescence polarization (FP) competition assay using a FITC-labeled substrate mimetic peptide inhibitor, as well as a chymotrypsin-coupled PPIase assay, using procedures described in Wei et al. [Nat Med 2015, 21:457-466].
The fluorescent polarization assay was performed in a dose-dependent and time-dependent manner, in order to further characterize the kinetic parameters of Pin1-3 binding to Pin1.

[1] = molecular target: T1, Pin1 in PAT8988T cell lysates (Homo sapiens, UniProt Q13526); assay: Lysate pull-down assay with Pin1-3-DTB; assay type: binding; conditions: 1 μM probe, 1 hour incubation in cell lysates
T1 construct: endogenous in cells; host or cells: PATU-8988T
T1 sequence (Q13526 whole entry): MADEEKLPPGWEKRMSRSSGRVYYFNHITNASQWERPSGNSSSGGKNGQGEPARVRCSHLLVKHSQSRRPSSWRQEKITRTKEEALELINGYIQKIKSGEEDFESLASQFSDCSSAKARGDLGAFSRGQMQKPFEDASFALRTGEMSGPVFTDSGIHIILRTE
Method: (§1) The indicated cells were treated with increasing concentrations of either DMSO, Pin1-3, or Pin1-3-AcA for 5 hours. Cells were harvested by scraping and washed twice with PBS before lysis with 50 mM HEPES (pH 7.4), 1 mM EDTA, 10% glycerol, 1 mM TCEP, 150 mM NaCl, 1 mM EDTA, 0.5% NP-40, and protease inhibitor tablet (Roche cat. #4693159001). After clarifying (14,000 rpm for 15 minutes), samples were treated with the indicated concentrations of Pin1-3-DTB at 4° C. for 1 hour. Lysates were then incubated with streptavidin agarose resin (Thermo Scientific, cat. #20349) for 1.5 hour at 4° C. Beads were washed four times with 500 μl of washing buffer (50 mM HEPES (pH 7.5), 10 mM NaCl, 1 mM EDTA, 10% glycerol), then pelleted by centrifugation and dried. The beads were boiled for 5 minutes at 95° C. in 2×LDS+10% β-mercaptoethanol. Proteins of interest were then assessed via Western blotting using the bolt system (Life Technologies).

[2] = test system: wild-type 8988T pancreatic cancer cells; assay: Organoid growth in Matrigel, wild-type PATU-8988T; assay type: cell-based; conditions: 1 μM, 9 days
Method: (§2) As three dimensional (3D) organoid models can reflect in vivo results better than monolayer cell culture [Baker et al., Trends Cancer Res 2016, 2:176-190], the anti-proliferative activity of Pin1-3 in PATU-8988T was further evaluated in wild-type or Pin1-knockout cells grown as organoids in Matrigel™ droplets. Cells were treated for 9 days with Pin1-3 (or Pin1-3-AcA or vehicle as a control), replenishing the compound in media every 3 days.

Pin1 in IMR32 cells = molecular target: T2, Pin1 in IMR32 cells (Homo sapiens, UniProt Q13526); assay: Live cell competition assay with Pin1-3-DTB pull-down, IMR32 cells; assay type: cell-based; conditions: IMR32 cells, 0.25, 0.5 or 1 μM Pin1-3 or 1 μM Pin1-3-AcA
T2 construct: endogenous in cells; host or cells: IMR32
T2 sequence (Q13526 whole entry): as above
Method: as §1
The indicated cells were plated in 10 cm plates with 2.5 million cells per plate in 6 ml of medium. The day after plating, cells were treated with the indicated concentrations of candidate inhibitor for the indicated time points. The cells were then washed two times with cold phosphate buffer saline (1 ml per 10 cm plate) and collected by scraping with a cell scraper. […]

[3] = test system: Pin1-knockout pancreatic cancer cells; assay: Organoid growth in Matrigel, Pin1-knockout PATU-8988T; assay type: cell-based; conditions: 1 μM, 9 days
Method: as §2

Pin1 in PATU-8988T cells = molecular target: T3, Pin1 in PATU-8988T cells (Homo sapiens, UniProt Q13526); assay: Live cell competition assay with Pin1-3-DTB pull-down, PATU-8988T cells; assay type: cell-based; conditions: 0.25 to 1 μM for 5 hours (Pin1-3-AcA 1 μM)
T3 construct: endogenous in cells; host or cells: PATU-8988T
T3 sequence (Q13526 whole entry): as above
Method: as §1
The indicated cells were plated in 10 cm plates with 2.5 million cells per plate in 6 ml of medium. The day after plating, cells were treated with the indicated concentrations of candidate inhibitor for the indicated time points. The cells were then washed two times with cold phosphate buffer saline (1 ml per 10 cm plate) and collected by scraping with a cell scraper. Cells were lysed in 50 mM HEPES (pH 7.4), 1 mM EDTA, 10% glycerol, 1 mM TCEP, 150 mM NaCl, 1 mM EDTA, 0.5% NP-40, and protease inhibitor tablet (Roche)-using 210 μl of cell lysis buffer per 10 cm plate of cells. After clarifying (14,000 rpm for 15 minutes), 9 μl of each lysate sample was combined with […] of 4×LDS+10% β-mercaptoethanol (in a ratio of 3:1), boiled for 5 minutes, and set aside for the input loading control. Then, 200 μl of each lysate sample was incubated with 1 μM of Pin1-3-DTB for 1 hour at 4° C. and processed as described hereinabove for the lysate pull-down assays.
In order to assess cell permeability of Pin1-3 as well as its ability to engage cellular Pin1, PATU-8988T cells were treated with Pin1-3 (0.25 to 1 μM) for 5 hours. After cell lysis, the lysates were incubated with Pin1-3-DTB (1 μM, 1 hour at 4° C.) and probe-labeled targets were pulled down with streptavidin beads.

Sequence of GST-Pin1 (Q13526 whole entry): as above

Row | Ki (GST-Pin1) [nM] | Pull-down of Pin1 by the probe [1] | Engagement of Pin1 (competition with Pin1-3-DTB) (Pin1 in IMR32 cells) | Competition with Pin1-3-DTB for Pin1 binding (pull-down) (Pin1 in PATU-8988T cells) | SMILES | Organoid growth [2] | Organoid growth [3]
1 | 38 | complete pull-down | – | – | CC1NC(=O)NC1CCCCCC(=O)NCCOCCOCCOCCC(=O)NCC(C)(C)CN(C(=O)CCl)C1CCS(=O)(=O)C1 (stereo not shown) [Pin1-3-DTB] | – | –
2 | > 100000 | – | does not | no competition | CC(=O)N(CC(C)(C)C)C1CCS(=O)(=O)C1 (stereo not shown) [Pin1-3-AcA, reference compound] | no effect | no effect
